Patent publication US20040092438A1, “Gd3-synthesis inhibitors for treating neuropathological disorders” (priority 1999, published 2004)

What was measured:
[1] = test system: primary neurons; assay: Oxygen/glucose deficiency in vitro, specific death of primary neurons; type: cell-based, mouse; conditions: 80 nM added 48 h before 6-hour oxygen/glucose deficiency, then reperfusion; relative to ST8-Sc-treated neurons
Description: Neurons were obtained from transgenic mice whose acid sphingomyelinase had been inactivated (ASM^−/−; Hirunouchi, K., et al., Nature Genetics 10, 288-294 (1995)) and wild-type mice of the same generation (ASM^+/+). Primary neuron cultures were prepared from 15- to 17-day mouse fetuses as previously described by Dawson, T. M., et al, Ann. neurol. 30, 843-6 (1991). […] The cells were applied to polyornithine-coated 24-well plates (Sigma, Deisenhofen, Germany). After 4 days, the cells were treated with cytosine arabinoside (5 μM) for a further four days in order to inhibit the proliferation of non-neural cells. The cell cultures were then kept at 8% CO2 and 37° C. in MEM, 10% horse serum, 25 mM glucose and 2 mM L-glutamine in a humidity incubator. The neurons were allowed to mature in culture for at least 8 days before being used for the experiment. The proportion of glial cells in the culture was determined using an antibody directed against glial fibrillary acidic protein (GFAP) to be less than 10%. […]
(§1) The percentage of dead cells was determined by trypan blue exclusion and expressed as percentage of the specific death. This was calculated as follows:
(§2) % specific death=(detected death−spontaneous death)/(100−spontaneous death)×100

[2] = test system: GD3 synthase; assay: GD3 levels in neurons after oxygen/glucose deficiency and reperfusion (thin-layer chromatography); type: cell-based, mouse; conditions: 80 nM added 48 h before 6-hour oxygen/glucose deficiency, 24-hour reperfusion; relative to ST8-Sc-treated neurons
Description: The procedure for generating a combined oxygen/glucose deficiency was known per se (Kaku, D. A., et al., Brain Res. 554:344-7; Monyer, H. et al., Neuron 8, 967-73 (1992); with slight modifications). The culture medium was replaced by MEM, 1% horse serum and 2 mM L-glutamine. The cultures were kept in an anaerobic chamber which contained a gas mixture comprising […], 85% N2 and 5% CO2, at 37° C. and 100% humidity for 6 h. The oxygen/glucose deficiency was abolished by removing the cultures from the chamber and adding horse serum and glucose to a final concentration of 10% and 25 mM respectively. The cultures were then replaced in a humidity incubator containing 8% CO2 and atmospheric oxygen for a further 3 h, 18 h or 24 h. […]
GD3 was determined as previously described by De Maria, R., et al., Science 277, 1652-5 (1997). […] For the immunostaining, the plates were coated with 0.5% poly(isobutyl methacrylate) in hexane, dried, incubated with the monoclonal antibody R24 (IgG3) directed against GD3 for 1 h, and read via the immunoperoxidase stain. The bands were then scanned and analyzed by densitometry using the AIDA-1000/1B image analyzer (Raytest Isotopenmessgerate, Straubenhardt, Germany).

[3] = test system: focal cerebral ischemia; conditions: single i.p. 100 mg/kg with piperonyl butoxide; p <0.007
Description: (§3) This was done by pushing a siliconized nylon suture through the common carotid artery as far as the MCA and stopping the blood flow through the MCA. After 90 min, the thread was withdrawn and thus the blood circulation was restored. The animals were under deep anesthesia (ketamine and Rompun; each 150 mg/kg of bodyweight) and the rectal temperature was maintained at about 37° C. with heat lamps and a heated cushion throughout the operation. After an observation period of 24 hours, the animals were again anesthetized, and the brains were dissected after perfusion.
The stained sections were scanned directly (MCID-M4,3.0; Imaging Res. Inc.). […] The significance was determined by the Mann-Whitney test. […] Averaging took place with the Scion-Image b 3.b.

[4] = test system: GD3 levels in the ischemic hemisphere; assay: GD3 levels in brain after MCA occlusion (thin-layer chromatography); type: in vivo, mice (C57BL6 strain); conditions: single i.p. 100 mg/kg with piperonyl butoxide 400 mg/kg, 15 min after MCA occlusion; 90-minute occlusion, 24-hour reperfusion
Description: as §3
Thus, tissues and cells were disrupted by two freeze-thaw cycles. The polar lipids were extracted, and the gangliosides were chromatographed on silica gel plates 60 for high performance thin-layer chromatography (HPTLC) (Merck, Darmstadt, Germany), dried and visualized with resorcinol. […] For the immunostaining, the plates were coated with 0.5% poly(isobutyl methacrylate) in hexane, dried, incubated with the monoclonal antibody R24 (IgG3) directed against GD3 for 1 h, and read via the immunoperoxidase stain. The bands were then scanned and analyzed by densitometry using the AIDA-1000/1B image analyzer (Raytest Isotopenmessgerate, Straubenhardt, Germany).

[5] = test system: primary neurons; assay: Neuronal death after addition of gangliosides to cortical neuron cultures; type: cell-based, mouse; conditions: 24 h after addition of 500 μM (highest dose) to cortical neuronal cells
Description: Neurons were obtained from transgenic mice whose acid sphingomyelinase had been inactivated (ASM^−/−; Hirunouchi, K., et al., Nature Genetics 10, 288-294 (1995)) and wild-type mice of the same generation (ASM^+/+). Primary neuron cultures were prepared from 15- to 17-day mouse fetuses as previously described by Dawson, T. M., et al, Ann. neurol. 30, 843-6 (1991). […] The cells were applied to polyornithine-coated 24-well plates (Sigma, Deisenhofen, Germany). After 4 days, the cells were treated with cytosine arabinoside (5 μM) for a further four days in order to inhibit the proliferation of non-neural cells. The cell cultures were then kept at 8% CO2 and 37° C. in MEM, 10% horse serum, 25 mM glucose and 2 mM L-glutamine in a humidity incubator. The neurons were allowed to mature in culture for at least 8 days before being used for the experiment. The proportion of glial cells in the culture was determined using an antibody directed against glial fibrillary acidic protein (GFAP) to be less than 10%.
as §1, §2
Cortical neuronal cells were treated with increasing doses of GD3. […]

“GD3 synthase antisense oligodeoxynucleotides: antisense oligodeoxynucleotides against GD3 synthase (SEQ ID NO:2) (antisense CAGTACAGCCATGGCCCCTCT; DNA, backbone and methylation of C not given here)” was tested, and the “mortality, % of the level in cultures treated with randomly arranged sequence” value [1] was 50% and the “accumulation of GD3, % of controls” value [2] was 55%.

For `CCCCCCCCCC(=O)N[C@H](CN1CCOCC1)[C@H](O)c1ccccc1` [D-PDMP, D-threo-1-phenyl-2-decanoylamino-3-morpholino-1-propanol], the “reduction in the lesion caused by stroke compared with untreated ischemic animals” value [3] was 90% and the “increase in GD3 on the ischemic side compared with the non-ischemic side” value [4] was 10%.

For II^3(NeuAc-α-2,8-NeuAc)LacCer [GD3], the specific neuronal death [5] was “up to 80%”.
